Measured values published in ChEMBL document CHEMBL5625262, “Discovery and first-time disclosure of CVN766, an exquisitely selective orexin 1 receptor antagonist” (Bioorg Med Chem Lett, 2024).

What was measured:
[1] = target: T1, Orexin/Hypocretin receptor type 1 (Homo sapiens, UniProt O43613); test: Antagonist activity at human Ox1R overexpressed in rat Chem-1 cells assessed as inhibition of orexin A induced calcium flux preincubated for 15 mins followed by orexin A addition by FLIPR analysis; format: functional, cell-based
T1 sequence (O43613 whole entry): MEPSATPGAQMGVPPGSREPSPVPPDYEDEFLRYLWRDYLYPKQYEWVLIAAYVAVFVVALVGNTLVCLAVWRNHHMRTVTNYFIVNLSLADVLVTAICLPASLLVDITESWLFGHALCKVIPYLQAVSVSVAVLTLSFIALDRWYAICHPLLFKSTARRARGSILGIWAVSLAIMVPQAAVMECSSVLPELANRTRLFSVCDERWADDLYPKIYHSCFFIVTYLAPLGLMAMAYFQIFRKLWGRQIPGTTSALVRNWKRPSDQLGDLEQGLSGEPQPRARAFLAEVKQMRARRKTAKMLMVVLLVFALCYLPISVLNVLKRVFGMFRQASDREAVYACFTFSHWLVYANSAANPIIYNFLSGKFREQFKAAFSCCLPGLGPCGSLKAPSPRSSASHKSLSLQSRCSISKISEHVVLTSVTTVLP

[2] = target: T2, Orexin receptor type 2 (Homo sapiens) (UniProt O43614); test: Antagonist activity at human Ox2R overexpressed in rat Chem-1 cells assessed as inhibition of orexin A induced calcium flux at 10 uM preincubated for 15 mins followed by orexin A addition by FLIPR analysis relative to control; format: functional, cell-based
T2 sequence (whole entry): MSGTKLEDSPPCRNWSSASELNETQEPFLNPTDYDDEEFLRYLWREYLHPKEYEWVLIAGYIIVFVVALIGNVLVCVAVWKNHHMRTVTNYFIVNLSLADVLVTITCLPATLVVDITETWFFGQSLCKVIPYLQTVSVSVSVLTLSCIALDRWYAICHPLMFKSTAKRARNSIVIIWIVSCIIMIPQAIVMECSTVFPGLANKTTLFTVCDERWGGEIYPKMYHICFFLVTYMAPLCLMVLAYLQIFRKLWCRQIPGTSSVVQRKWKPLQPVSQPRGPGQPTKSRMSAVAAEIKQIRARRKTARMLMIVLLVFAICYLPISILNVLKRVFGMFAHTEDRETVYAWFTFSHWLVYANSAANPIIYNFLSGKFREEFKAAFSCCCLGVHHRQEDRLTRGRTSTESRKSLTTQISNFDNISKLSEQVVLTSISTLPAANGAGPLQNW

[3] = target: T1, Orexin/Hypocretin receptor type 1; test: Displacement of 3H-SB-674042 from human Ox1R expressed in CHO cell membranes by liquid scintillation counting method; parameters: species or system Membrane
[4] = target: T3, Orexin/Hypocretin receptor type 1 (Homo sapiens) (UniProt O43613); details: CHO, Membrane, filed as antagonist
T3 sequence (whole entry): T1 sequence (O43613 whole entry)

Orexin receptor type 2 [5] = target: T4, Orexin receptor type 2 (Homo sapiens, UniProt O43614); test: Antagonist activity at human Ox2R overexpressed in rat Chem-1 cells assessed as inhibition of orexin A induced calcium flux preincubated for 15 mins followed by orexin A addition by FLIPR analysis; format: functional, cell-based
T4 sequence (O43614 whole entry): T2 sequence (whole entry)

[6] = Metabolic stability in mouse liver microsomes assessed as intrinsic clearance; format: ADME, Microsome; details: read-out: CLH
[7] = Metabolic stability in human liver microsomes assessed as intrinsic clearance; format: ADME, Microsome; details: read-out: CLH
[8] = Metabolic stability in rat liver microsomes assessed as intrinsic clearance; format: ADME, Microsome; details: read-out: CLH
[9] = Volume of distribution in po or iv dosed Sprague-Dawley rat; format: ADME, organism-based; details: in vivo
[10] = Ratio of drug concentration in brain to plasma of po and iv dosed Sprague-Dawley rat; format: ADME, organism-based
[11] = Tmax in Sprague-Dawley rat at 3 mg/kg, po measured for 8 hrs; format: ADME, organism-based; details: in vivo
[12] = Ratio of unbound drug concentration in brain to plasma of po and iv dosed Sprague-Dawley rat; format: ADME, organism-based
[13] = Oral bioavailability in Sprague-Dawley rat; format: ADME, organism-based; details: in vivo
[14] = Clearance in dog; format: ADME, Canis lupus familiaris; details: in vivo
[15] = Selectivity ratio of pKi for displacement of 3H-SB-674042 from human Ox1R expressed in CHO cell membranes to pKi for Ox2R (unknown origin)
[16] = Oral bioavailability in dog; format: ADME, organism-based, Canis lupus familiaris; details: in vivo
Orexin receptor type 2 [17] = target: T4, Orexin receptor type 2; test: Binding affinity to Ox2R (unknown origin)
[18] = In vivo receptor occupancy at Ox1R in Sprague-Dawley rat at 3 mg/kg, po in presence of [3H]-SB-674042 measured for 8 hrs; format: ADME, organism-based

In the case of `Cc1nc(C(F)(F)F)cnc1N[C@H]1CCC[C@@H]1NC(=O)c1ncccc1-n1nccn1`, the IC50 [1] is reported as 32 nM and the inhibition [2] is reported as 11.4%.
`CCc1nc(C(F)(F)F)cnc1N[C@H]1CCC[C@@H]1NC(=O)c1ccccc1-n1nccn1` showed an inhibition [2] of 25.6%.
For `C[C@]1(Nc2cnc(C(F)(F)F)cn2)CCC[C@@H]1NC(=O)c1ccccc1-n1nccn1`, the IC50 [1] was 6 nM and the inhibition [2] was 25.3%.
`O=C(N[C@H]1CCC[C@@H]1Nc1cnc(C(F)(F)F)cn1)c1ccccc1-n1nccn1` showed a Ki [3] of 81.3 nM and an inhibition [2] of 12%.
`Cc1nc(C(F)(F)F)cnc1N[C@H]1CCC[C@@H]1NC(=O)c1ccccc1-n1nccn1` gave a Ki [3] of 20.9 nM, an IC50 [1] of 21 nM and an inhibition [2] of 22%.
`CCc1nc(C(F)(F)F)cnc1N[C@@H]1CCC[C@H]1NC(=O)c1ncccc1-n1nccn1` gave an IC50 [1] of 1230 nM and an inhibition ([2]; filed as antagonist) of 71.4%.
`Cc1ccc(-n2nccn2)c(C(=O)N2CCN(c3nc4cc(Cl)ccc4o3)CC[C@H]2C)c1` gave a T1/2 [4] of 1.25 h.
`Cc1ccc(-n2nccn2)c(C(=O)N[C@H]2CCC[C@@H]2Nc2nc3ccc(F)cc3s2)c1` gave an IC50 (Orexin receptor type 2 [5]) of 2460 nM and an IC50 [1] of 17 nM.
`CC(C)c1cnc(N[C@H]2CCC[C@@H]2NC(=O)c2ccccc2-n2nccn2)cn1` gave a microsomal CLint [6] of 403 µL/min/mg, a microsomal CLint [7] of 23 µL/min/mg and an inhibition [2] of 12%. The microsomal CLint [8] was 119 µL/min/mg.
`Cc1ccc(-n2nccn2)c(C(=O)N[C@H]2CCC[C@@H]2Nc2cnc3ccccc3n2)c1` gave a microsomal CLint [6] of 442 µL/min/mg, an IC50 [1] of 16 nM and a microsomal CLint [7] of 24 µL/min/mg. For the same compound, the inhibition ([2]; filed as antagonist) was 60% and the microsomal CLint [8] was 335 µL/min/mg.
Work on `CCc1nc(C(F)(F)F)cnc1N[C@H]1CCC[C@@H]1NC(=O)c1ncccc1-n1nccn1` [CVN-766] yielded a T1/2 [4] of 2.2 h, a microsomal CLint [6] of under 3 µL/min/mg and a Ki [3] of 7.24 nM. For the same compound, the Vd [9] was 1.02 L/kg, the BPR [10] was 0.6 and the Tmax [11] was 1 h. The IC50 [1] was 8 nM, the “K(p,uu,brain)” value [12] was 0.77 and the bioavailability [13] was 18%. The microsomal CLint [7] was under 3 µL/min/mg, the clearance [14] was 2.2 mL/min/kg and the inhibition [2] was 37.5%. It also gave a Ratio pKi [15] of over 1000, a bioavailability [16] of 77% and a microsomal CLint [8] of 13 µL/min/mg. For the same compound, the Ki (Orexin receptor type 2 [17]) was 12900 nM and the Occ [18] was 79.9%.
`C[C@]1(Nc2cnc(C(F)(F)F)cn2)CCC[C@@H]1NC(=O)c1ncccc1-n1nccn1` showed a Ki [3] of 18.2 nM, a pKi ([3]; cho) of 7.74 and an IC50 [1] of 16 nM. It also gave an inhibition [2] of 21.1%.
